Laboratory results taken from patent US20110034373A1, “USE OF AN FGF-21 COMPOUND AND A GLP-1 COMPOUND FOR THE TREATMENT OF OBESITY” (ELI LILLY AND COMPANY, priority 2007, published 2011).

System: Diet-induced obese (DIO) male C57/B16 mice
Test: Effect of combination treatment with GLP-1 and FGF-21 on body weight in diet-induced obese mice
Type: in vivo
Details: GLP-1 compound 3 nmol/kg/day continuous s.c. infusion (alzet pump), n=8
Method: Diet-induced obese (DIO) male C57/B16 mice (Harlan: Va.) maintained on a calorie rich diet (TD95217, Teklad, Madison, Wis.) since weaning are used, DIO is established by ad libitum feeding for at least 7 weeks of a diet consisting of 40% fat, 39% carbohydrate, and 21% protein caloric content (TD95217). Animals are individually housed in a temperature-controlled (24° C.) facility with 12 hour light/dark cycle (lights on 2200) and free access to food (TD95217) and water. After a minimum of 2 weeks acclimation to the facility, the mice are randomized according to their body weight, so each experimental group of animals would have similar body weight.
Body composition of DIO male C57/B16 mice is determined by using QNMR analysis 1 day prior to initiation of treatment. Combination treatment is administered with two delivery methods. A FGF-21 compound (1 mg/kg) is subcutaneously injected once a day and a GLP-1 compound (3 nmol/kg/day) is delivered by continuous subcutaneous infusion with alzet pump. The experimental groups are as follow: One group (“Vehicle”) of mice (n=8) receives PBS (11.4 μL/day) and a daily subcutaneous injection of 0.05 mL/10 g of PBS. Another group (“FGF-21”) of mice (n=8) receives 11.4 μL/day of PBS using the alzet pump and a daily subcutaneous injection of 1 mg/kg of FGF-21. The “GLP-1” group of mice receives 3 nmol/kg/day of a GLP-1 compound through an alzet pump and a daily subcutaneous injection of 0.05 mL/10 g of PBS. The “GLP-1+FGF-21” group of mice receives 3 nmol/kg/day of a GLP-1 compound through an alzet pump and a daily subcutaneous injection of 1 mg/kg of a FGF-21 compound. Injections occur prior to the onset of the dark photoperiod. Starting weight values are measured after implantation of alzet pumps on Day 1. Body weights are recorded in conjunction with daily dosing. Average weight changes compared to starting weights of a particular treatment group, including vehicle, are determined. Average daily weight changes are normalized to average of daily weight change of Vehicle group and are reported in Table 1 (i.e., (Average weight change of Treatment group)−(Average weight change of Vehicle group)). For all treatment groups n=8.
Data in Table 1 represent results where the FGF-21 compound is human FGF-2 (SEQ ID NO: 1) and where the GLP-1 compound is Val^8-Glu^22-Ile^33-Pro^37-Ser^38-Ser^39-Gly^40-Ala^41-Pro^42-Pro^43-Pro^44-Ser^45-GLP-1 (SEQ ID NO: 19).

[1] = Day 1 (starting weight), FGF-21 compound 1 mg/kg s.c. once a day
[2] = Day 5, FGF-21 compound 1 mg/kg s.c. once a day
[3] = Day 10, FGF-21 compound 1 mg/kg s.c. once a day
[4] = Day 15, FGF-21 compound 1 mg/kg s.c. once a day

Row | Molecule | Average Weight Change Normalized to Vehicle Treated Mice [1] | Average Weight Change Normalized to Vehicle Treated Mice [2] | Average Weight Change Normalized to Vehicle Treated Mice [3] | Average Weight Change Normalized to Vehicle Treated Mice [4]
1 | Val^8-Glu^22-Ile^33-Pro^37-Ser^38-Ser^39-Gly^40-Ala^41-Pro^42-Pro^43-Pro^44-Ser^45-GLP-1 (HVEGTFTSDVSSYLEEQAAKEFIAWLIKGGPSSGAPPPS) | 0 g | -1.01 g | -1.99 g | -2.50 g
2 | FGF-21: FGF-21 compound of Table 1: human FGF-21, printed as 'human FGF-2 (SEQ ID NO: 1)' (protein, listed as Homo sapiens) MDSDETGFEHSGLWVSVLAGLLGACQAHPIPDSSPLLQFGGQVRQRYLYTDDAQQTEAHLEIREDGTVGGAADQSPESLLQLKALKPGVIQILGVKTSRFLCQRPDGALYGSLHFDPEACSFRELLLEDGYNVYQSEAHGLPLHLPGNKSPHRDPAPRGPARFLPLPGLPPALPEPPGILAPQPPDVGSSDPLSMVGPSQGRSPSYAS | 0 g | -0.45 g | -1.94 g | -2.85 g
